Assay results reported in patent US5183805A (Board of Regents, The University of Texas System, priority 1990, dated 1993).
Where two headings read alike, the source gives them in different places. Positions of bridges follow the written chain, without caps; N, C: chain ends. Residues, ends and D or L forms follow the SMILES beside them. No end group written: not given here.

Legend:
[1] = Heath and Merrifield (1986); cited from earlier work
[2] = tested on: A431 cells; experiment: Mitogenic stimulation / growth of A431 cells; assay type: cell-based; details: for effect on A431 cell growth: serum-free medium, counted after 72 hours
Method: FlG. […] Mitogenic Stimulation of A431 cells. […] The peptide analog 38A is the cyclic form of the peptide with native tyrosine. Cells were harvested 72 hours later and counted with the aid of a hemacytometer.
A431 cells are a malignant cell line in which the study of EGF-r has been well characterized. […] Over the range of peptide analog concentrations tested, no inhibition of A431 cell growth was observed.

[3] = target: T1, EGF receptor (Homo sapiens, UniProt P00533); experiment: Inhibition of 125I-EGF binding to A431 cells (EGF receptor competition assay); parameters: endogenous in cells; host or cells: A431 epidermoid carcinoma cells (ATCC CRL 1555)
T1 sequence (P00533 25-1210): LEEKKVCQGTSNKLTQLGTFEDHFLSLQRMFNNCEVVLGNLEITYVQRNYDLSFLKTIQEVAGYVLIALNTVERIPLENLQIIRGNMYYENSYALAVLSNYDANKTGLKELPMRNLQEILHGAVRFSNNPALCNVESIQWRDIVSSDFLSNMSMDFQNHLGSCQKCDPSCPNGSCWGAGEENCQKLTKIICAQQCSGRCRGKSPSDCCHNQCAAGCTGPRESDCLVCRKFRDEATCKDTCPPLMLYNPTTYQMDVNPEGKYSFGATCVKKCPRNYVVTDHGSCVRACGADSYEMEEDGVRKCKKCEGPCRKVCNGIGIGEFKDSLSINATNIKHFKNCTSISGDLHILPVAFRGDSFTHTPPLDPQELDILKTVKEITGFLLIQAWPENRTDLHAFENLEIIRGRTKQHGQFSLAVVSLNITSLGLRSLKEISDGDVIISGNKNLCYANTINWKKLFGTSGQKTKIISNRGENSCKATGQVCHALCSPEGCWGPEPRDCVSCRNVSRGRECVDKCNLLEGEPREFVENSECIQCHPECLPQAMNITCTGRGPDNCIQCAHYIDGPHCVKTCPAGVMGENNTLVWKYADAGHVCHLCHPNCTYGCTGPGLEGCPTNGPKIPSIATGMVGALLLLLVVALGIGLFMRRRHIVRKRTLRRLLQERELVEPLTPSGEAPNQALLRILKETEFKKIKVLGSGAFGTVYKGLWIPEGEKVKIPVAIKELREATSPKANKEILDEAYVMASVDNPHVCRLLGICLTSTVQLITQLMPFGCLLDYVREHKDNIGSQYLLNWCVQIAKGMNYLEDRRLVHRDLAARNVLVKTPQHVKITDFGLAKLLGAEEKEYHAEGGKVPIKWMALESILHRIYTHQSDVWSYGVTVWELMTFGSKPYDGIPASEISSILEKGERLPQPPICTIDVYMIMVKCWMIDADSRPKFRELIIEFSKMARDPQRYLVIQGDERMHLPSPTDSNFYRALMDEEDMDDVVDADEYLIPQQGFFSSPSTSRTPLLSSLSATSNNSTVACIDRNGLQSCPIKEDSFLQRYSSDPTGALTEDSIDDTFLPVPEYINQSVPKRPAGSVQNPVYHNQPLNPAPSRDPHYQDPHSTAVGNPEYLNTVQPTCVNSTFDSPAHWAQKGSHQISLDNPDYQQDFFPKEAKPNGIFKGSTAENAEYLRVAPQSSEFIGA
Method: FIG. 3--Inhibition of ^125 I-EGF binding by synthetic peptides. 1×10^5 A431 cells were plated in each well of a 24 well tissue culture plate, and allowed to grow for 48 o hours. Cells were rinsed 3 times in cold serum-free DMEM containing 0.1% BSA and 50 mM HEPES, pH 7.4, then incubated in this medium for 45 min. at 4° C. Subsequently, varying concentrations of peptide (or unlabeled EFG) was added, followed by 20,000 cpm ^125 I-EGF. After 2 hours incubation, medium is removed and cells are washed two times in PBS, then solubilized in 1 ml IN NaOH at 24° C. for 18 hours. Radioactivity in the solution is determined in a gamma counter. Peptide A--cyclic peptide with tyr at position 6; Peptide B--linear peptide with tyr at position 6; Peptide C --cyclic peptide with phe at position 6.
For this assay, cells were grown overnight in serum free media in microtiter wells, washed several times in PBS, then incubated for 2h with various concentrations of peptides. ^125 I-EGF was then added for 3o min, cells were extensively washed, and radioactivity was estimated in a gamma counter.

[4] = tested on: ornithine decarboxylase (ODC) induction by EGF; experiment: Effect of peptide pretreatment on EGF-stimulated ODC induction in ME-180 cells; assay type: cell-based; details: 100-fold excess, 100 ng/ml peptide 30 min, then 10 ng/ml EGF 3 hours
Method: FIG. 4--Effect of synthetic peptide pretreatment on EGF-stimulated ODC induction in ME-180 cells. […] Cells are pelleted, sonicated in a buffer containing 25 mM NaPO4, 1mM DTT, 40 μM PLP, 0.1 mM EDTA, and centrifuged for 30 min. at 15,000 rpm at 4° C. Ornithine decarboxylase activity was determined on the supernatant by monitoring ^14 CO2 released from 0.5 μCi of I (^14 C) ornithine in a total ornithine concentration of 0.5 mM and a total volume of 0.2ml. P1--linear peptide and P2--cyclic peptide with phe at position 6; P3--linear peptide and P4--cyclic peptide with tyr at position 6.

[5] = target: T2, EGF-R (Homo sapiens, UniProt P00533); experiment: Kinetics of EGF-R kinase stimulation: peptide added to A431 cells, then immune complex kinase assay; assay type: cell-based; details: 20 ng/ml peptide, 37° C, very preliminary
T2 construct: endogenous in cells; host or cells: A431 epidermoid carcinoma cells (ATCC CRL 1555)
T2 sequence (P00533 25-1210): as above
Method: FIG. 1 - Kinetics of EGF-R stimulation by synthetic peptides. To semi-confluent A431 cells (grown in 0.1% FCS), indicated concentrations of cyclic (peptide A) or linear (peptide D) peptide with tyr at position 6 was added at a concentration of 20 ng/ml for 10 min at 37° C. Cells were harvested, lysed, EFG-R was immunoprecipitated, immune complex kinase assays were performed, and proteins resolved as described in FIG. 1. […] This figure compares preliminary kinetics of kinase stimulation after the addition of the active cyclic and less-active linear peptide to A431 cells. Immune complex kinase of EGF-r after addition of various biological response modifiers to A431 cells is shown.

[6] = target: T1, EGF receptor; experiment: Summary statements on biological activity (receptor studies, parameters examined) compared with other EGF peptide analogs
Source text: Relative biological activity of a peptide also may reflect the activity of the peptide in immune complex kinase assays, the ability to inhibit ornithine decarboxylase activity, mitogenic stimulation activity, ability to induce EGF-r phosphorylation in vivo and action in the phosphorylation of calpactin.

[7] = target: T1, EGF receptor; experiment: Immune complex kinase assay of EGF-R immunoprecipitated from A431 cells, peptides added to the complexes, autophosphorylation measured; assay type: biochemical; parameters: endogenous in cells; host or cells: A431 epidermoid carcinoma cells (ATCC CRL 1555)
Method: A431 cells at approximately 70-80% confluency were lysed in a detergent-containing (RIPA) buffer, and clarified by centrifuging at 10,000×g for 10 min. […] Immune complexes were harvested after 15 min. incubation with 50 μl Pansorbin. For kinase assays, complexes were washed in RIPA buffer, then resuspended in 50 μl 1 0.1% Triton X-100 in 20 mM HEPES, pH 7.0, with the addition of 100 μm sodium vanadate. After 10 min. incubation, kinase reaction was initiated by addition of 50 μl of 20 mM HEPES containing 10 μCi γ^-32p ATP. Reaction was allowed to proceed at 25° C. for 10 min., and terminated by addition of RIPA buffer.
This assay is very sensitive, and kinase activation is among the earliest events in mitogenesis.
Immune complexes were harvested with formalin fixed staphylococcus aureus Cowan Strain (Calbiochem). These complexes were then assayed for kinase activity in an immune complex kinase assay.
Selected peptides from Example 3 were employed in the study.

isolated "B" loop: synthetic peptide of the isolated B loop of EGF (residues 20-31), Heath and Merrifield (CMYIEALDKYAC; ends and bridges not checked; cysteine pairing not given here; UniProt P01133 990-1001, looked up, fragment)
activity relative to EGF [1]: 0.001%

CC[C@H](C)[C@@H]1NC(=O)[C@H](Cc2ccc(O)cc2)NC(=O)CNC(=O)[C@H](C(C)C)NC(=O)[C@H](C(C)C)NC(=O)[C@@H](NC(=O)[C@H](CC(N)=O)NC(C)=O)CSSC[C@@H](C(=O)N[C@@H](CCC(N)=O)C(=O)N[C@@H](Cc2ccc(O)cc2)C(=O)N[C@@H](CCCNC(=N)N)C(=O)N[C@@H](CC(=O)O)C(=O)N[C@@H](CC(C)C)C(=O)N[C@@H](CCCCN)C(N)=O)NC(=O)[C@H](CCCNC(=N)N)NC(=O)[C@H](CCC(=O)O)NC(=O)CNC1=O [Peptide A] (Ac-NCVVGYIGERCQYRDLK-NH2; disulfide 2-11)
effect on A431 cell growth ([2]; 0.1 ng/ml, listed as 38A): stimulated cell growth
effect on A431 cell growth ([2]; 0.1 ng/ml, listed as most biologically active cyclic peptide analog): stimulated these cells
effect of higher concentrations of EGF on A431 growth in the presence of peptide ([2]; 10 ng/ml peptide analog mixed with higher concentrations of EGF): no longer growth-inhibited
effect on A431 cell growth ([2]; 10 ng/ml, listed as 38A): stimulated cell growth
effect on A431 cell growth ([2]; 10 ng/ml, listed as most biologically active cyclic peptide analog): stimulated these cells
effect on A431 cell growth of peptide mixed with EGF ([2]; peptide and EGF mixed, low concentrations): stimulation of cell growth
inhibition of A431 cell growth over the range of concentrations tested ([2]; whole concentration range tested): no inhibition
competition for EGF receptor binding relative to any previously reported peptide [3]: 100 fold
concentration for 50% inhibition of 125I-EGF binding relative to that for unlabeled EGF [3]: 10 fold
inhibition of ODC induction of EGF [4]: 50%
time of maximum stimulation of kinase activity [5]: 15 min
biological activity relative to any other EGF peptide analog so far synthesized ([6]; listed as cyclic form of this unsubstituted peptide): 100 fold
biological activity relative to any other EGF peptide analog so far synthesized ([6]; listed as cyclic peptide comprising the end of the B loop and the C loop): 100 fold
biological activity relative to any other EGF peptide analog so far synthesized ([6]; listed as natural tyrosine form of the cyclic peptide analog): > 100 fold

CC[C@H](C)[C@@H]1NC(=O)[C@H](Cc2ccccc2)NC(=O)CNC(=O)[C@H](C(C)C)NC(=O)[C@H](C(C)C)NC(=O)[C@@H](NC(=O)[C@H](CC(N)=O)NC(C)=O)CSSC[C@@H](C(=O)N[C@@H](CCC(N)=O)C(=O)N[C@@H](Cc2ccc(O)cc2)C(=O)N[C@@H](CCCNC(=N)N)C(=O)N[C@@H](CC(=O)O)C(=O)N[C@@H](CC(C)C)C(=O)N[C@@H](CCCCN)C(N)=O)NC(=O)[C@H](CCCNC(=N)N)NC(=O)[C@H](CCC(=O)O)NC(=O)CNC1=O [Peptide C] (Ac-NCVVGFIGERCQYRDLK-NH2; disulfide 2-11)
stimulation of kinase activity ([7]; 30 ng/ml peptide): approximately 2 fold
competition for 125I-EGF binding (in words) [3]: marginal competition

CC[C@H](C)[C@H](NC(=O)[C@H](Cc1ccccc1)NC(=O)CNC(=O)[C@@H](NC(=O)[C@@H](NC(=O)[C@H](CS)NC(=O)[C@H](CC(N)=O)NC(C)=O)C(C)C)C(C)C)C(=O)NCC(=O)N[C@@H](CCC(=O)O)C(=O)N[C@@H](CCCNC(=N)N)C(=O)N[C@@H](CS)C(=O)N[C@@H](CCC(N)=O)C(=O)N[C@@H](Cc1ccc(O)cc1)C(=O)N[C@@H](CCCNC(=N)N)C(=O)N[C@@H](CC(=O)O)C(=O)N[C@@H](CC(C)C)C(=O)N[C@@H](CCCCN)C(N)=O [Peptide P1] (Ac-NCVVGFIGERCQYRDLK-NH2)
stimulation of EGF-receptor kinase activity (in words) [7]: no activity

CC[C@H](C)[C@H](NC(=O)[C@H](Cc1ccc(O)cc1)NC(=O)CNC(=O)[C@@H](NC(=O)[C@@H](NC(=O)[C@H](CS)NC(=O)[C@H](CC(N)=O)NC(C)=O)C(C)C)C(C)C)C(=O)NCC(=O)N[C@@H](CCC(=O)O)C(=O)N[C@@H](CCCNC(=N)N)C(=O)N[C@@H](CS)C(=O)N[C@@H](CCC(N)=O)C(=O)N[C@@H](Cc1ccc(O)cc1)C(=O)N[C@@H](CCCNC(=N)N)C(=O)N[C@@H](CC(=O)O)C(=O)N[C@@H](CC(C)C)C(=O)N[C@@H](CCCCN)C(N)=O [Peptide B] (Ac-NCVVGYIGERCQYRDLK-NH2)
competition for 125I-EGF binding (in words) [3]: marginal competition
biological activity relative to any other EGF peptide analog so far synthesized [6]: 10 fold

epidermal growth factor (NSDSECPLSHDGYCLHDGVCMYIEALDKYACNCVVGYIGERCQYRDLKWWELR; Epidermal growth factor; UniProt P01133 971-1023, looked up) [EGF, single-chain polypeptide, 53 amino acid residues, three internal disulfide bonds]
effect on A431 cell growth ([2]; 0.1 ng/ml): stimulated A431 cell growth
effect on A431 cell growth ([2]; 0.1 ng/ml, listed as Native EGF): stimulated growth
effect on A431 cell growth ([2]; 10 ng/ml): inhibited
effect on A431 cell growth ([2]; 10 ng/ml, listed as Native EGF): inhibited cell growth
